Data as given in patent publication US20230399342A1 (Incyte Corporation, priority 2022, published 2023).

Tests used:
DGKα = DGKα (Homo sapiens (Human), UniProt P23743); assay: In vitro DGKα inhibition assay (ADP-Glo); format: biochemical; conditions: His-tagged human recombinant enzyme, 0.1 nM DGKα, 50 μM ATP, 20 μM DLG, 90 minute incubation
How it was run: (§1)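 His-tagged human DGKα (0.1 nM, 50 μM ATP) or DGKζ (0.4 nM, 30 μM ATP), each with 20 μM DLG, in Tris pH 7.5 buffer with CHAPS, Mg2+, Ca2+.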

DGKζ = DGKζ (Homo sapiens (Human), UniProt Q13574); assay: In vitro DGKζ inhibition assay (ADP-Glo); format: biochemical; conditions: His-tagged human recombinant enzyme, 0.4 nM DGK, 30 μM ATP, 20 μM DLG, 90 minute incubation
How it was run: as §1

DGKζ, sequence (Q13574 whole entry): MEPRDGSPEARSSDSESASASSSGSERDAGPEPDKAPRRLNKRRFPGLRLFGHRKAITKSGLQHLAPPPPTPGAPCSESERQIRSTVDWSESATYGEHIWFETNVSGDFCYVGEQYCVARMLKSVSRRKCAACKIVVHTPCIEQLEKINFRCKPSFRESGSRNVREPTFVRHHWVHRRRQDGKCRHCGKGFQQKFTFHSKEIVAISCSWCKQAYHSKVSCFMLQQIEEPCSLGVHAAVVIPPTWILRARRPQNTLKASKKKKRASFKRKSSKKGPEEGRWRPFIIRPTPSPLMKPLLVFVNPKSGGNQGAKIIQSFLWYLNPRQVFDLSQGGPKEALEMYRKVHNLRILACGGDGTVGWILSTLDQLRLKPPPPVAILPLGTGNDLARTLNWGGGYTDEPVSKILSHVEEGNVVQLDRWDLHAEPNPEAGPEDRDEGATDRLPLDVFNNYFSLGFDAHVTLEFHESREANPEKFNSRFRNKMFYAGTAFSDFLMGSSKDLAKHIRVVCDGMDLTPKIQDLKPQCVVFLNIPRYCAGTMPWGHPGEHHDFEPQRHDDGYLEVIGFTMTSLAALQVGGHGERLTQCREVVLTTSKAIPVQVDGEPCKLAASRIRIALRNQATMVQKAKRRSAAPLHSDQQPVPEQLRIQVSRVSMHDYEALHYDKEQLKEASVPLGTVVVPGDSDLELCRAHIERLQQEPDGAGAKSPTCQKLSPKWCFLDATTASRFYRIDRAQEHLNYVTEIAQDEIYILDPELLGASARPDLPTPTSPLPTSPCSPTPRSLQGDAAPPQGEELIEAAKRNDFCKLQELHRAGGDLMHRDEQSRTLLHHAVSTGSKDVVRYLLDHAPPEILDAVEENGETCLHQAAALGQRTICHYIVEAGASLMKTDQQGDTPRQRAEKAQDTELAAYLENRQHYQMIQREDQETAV
DGKα, sequence (P23743 whole entry): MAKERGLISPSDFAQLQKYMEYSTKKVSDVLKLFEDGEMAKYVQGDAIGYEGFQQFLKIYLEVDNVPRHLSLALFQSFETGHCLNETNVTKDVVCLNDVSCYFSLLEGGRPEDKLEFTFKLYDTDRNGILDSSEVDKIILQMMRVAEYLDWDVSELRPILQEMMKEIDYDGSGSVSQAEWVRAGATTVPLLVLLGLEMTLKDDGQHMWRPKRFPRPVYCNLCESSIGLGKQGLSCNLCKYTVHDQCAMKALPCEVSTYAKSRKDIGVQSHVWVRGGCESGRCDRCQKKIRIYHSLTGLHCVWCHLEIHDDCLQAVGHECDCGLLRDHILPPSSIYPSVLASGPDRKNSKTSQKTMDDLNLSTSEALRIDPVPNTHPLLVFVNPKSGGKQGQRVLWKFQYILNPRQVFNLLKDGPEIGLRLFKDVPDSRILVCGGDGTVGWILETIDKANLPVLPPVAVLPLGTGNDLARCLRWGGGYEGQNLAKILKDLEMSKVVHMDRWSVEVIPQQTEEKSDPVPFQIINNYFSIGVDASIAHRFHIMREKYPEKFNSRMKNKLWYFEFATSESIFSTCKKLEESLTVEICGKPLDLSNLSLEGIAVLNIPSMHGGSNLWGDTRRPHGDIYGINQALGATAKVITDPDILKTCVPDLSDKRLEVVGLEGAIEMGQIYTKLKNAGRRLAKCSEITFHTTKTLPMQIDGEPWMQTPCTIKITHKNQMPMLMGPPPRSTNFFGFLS

| SMILES | IC50 (DGKα) | IC50 (DGKζ) |
| --- | --- | --- |
| Cc1nc2c(N3C[C@@H](C)N([C@H](c4ccc(Cl)c(Cl)c4)C4CC(F)(F)C4)C[C@@H]3C)nc3nncn3c2n1C[C@@H]1CCCO1 [Example 48, 4-((2S,5R)-4-((S)-(3,4-Dichlorophenyl)(3,3-difluorocyclobutyl)methyl)-2,5-dimethylpiperazin-1-yl)-2-methyl-1-(((S)-tetrahydrofuran-2-yl)methyl)-1H-[1,2,4]triazolo[3,4-b]purine] | ≤ 20 nM | ≤ 20 nM |
| Cc1nc2c(N3C[C@@H](C)N([C@@H](c4ccc(Cl)c(Cl)c4)C4CC(F)(F)C4)C[C@@H]3C)nc3nncn3c2n1C[C@@H]1CCCO1 [Example 49, 4-((2S,5R)-4-((R)-(3,4-dichlorophenyl)(3,3-difluorocyclobutyl)methyl)-2,5-dimethylpiperazin-1-yl)-2-methyl-1-(((S)-tetrahydrofuran-2-yl)methyl)-1H-[1,2,4]triazolo[3,4-b]purine] | ≤ 20 nM | ≤ 20 nM |
| Cc1cc(C(C2CC(F)(F)C2)N2C[C@H](C)N(c3nc4nncn4c4c3nc(C)n4C[C@@H]3CCCO3)C[C@H]2C)ccc1Cl (stereo partly drawn) [Example 51, 4-((2S,5R)-4-((4-Chloro-3-methylphenyl)(3,3-difluorocyclobutyl)methyl)-2,5-dimethylpiperazin-1-yl)-2-methyl-1-(((S)-tetrahydrofuran-2-yl)methyl)-1H-[1,2,4]triazolo[3,4-b]purine] | ≤ 20 nM | ≤ 20 nM |
| Cc1nc2c(N3C[C@@H](C)N(C(c4cc(F)c(F)c(F)c4)C4CC(F)(F)C4)C[C@@H]3C)nc3nncn3c2n1C[C@@H]1CCCO1 (stereo partly drawn) [Example 52, 4-((2S,5R)-4-((3,3-Difluorocyclobutyl)(3,4,5-trifluorophenyl)methyl)-2,5-dimethylpiperazin-1-yl)-2-methyl-1-(((S)-tetrahydrofuran-2-yl)methyl)-1H-[1,2,4]triazolo[3,4-b]purine] | ≤ 20 nM | ≤ 20 nM |
| Cc1nc2c(N3C[C@@H](C)N(C(c4cc(F)ccc4F)C4CC(F)(F)C4)C[C@@H]3C)nc3nncn3c2n1C[C@@H]1CCCO1 (stereo partly drawn) [Example 53, 4-((2S,5R)-4-((3,3-Difluorocyclobutyl)(2,5-difluorophenyl)methyl)-2,5-dimethylpiperazin-1-yl)-2-methyl-1-(((S)-tetrahydrofuran-2-yl)methyl)-1H-[1,2,4]triazolo[3,4-b]purine] | ≤ 20 nM | ≤ 20 nM |
| Cc1nc2c(N3C[C@@H](C)N(C(c4ccc(F)c(C(F)F)c4)C4CC(F)(F)C4)C[C@@H]3C)nc3nncn3c2n1C[C@@H]1CCCO1 (stereo partly drawn) [Example 54, 4-((2S,5R)-4-((3,3-Difluorocyclobutyl)(3-(difluoromethyl)-4-fluorophenyl)methyl)-2,5-dimethylpiperazin-1-yl)-2-methyl-1-(((S)-tetrahydrofuran-2-yl)methyl)-1H-[1,2,4]triazolo[3,4-b]purine] | ≤ 20 nM | ≤ 20 nM |
| Cc1cc(C(C2CC(F)(F)C2)N2C[C@H](C)N(c3nc4nncn4c4c3nc(C)n4C[C@@H]3CCCO3)C[C@H]2C)ccc1C(F)(F)F (stereo partly drawn) [Example 55, 4-((2S,5R)-4-((3,3-Difluorocyclobutyl)(3-methyl-4-(trifluoromethyl)phenyl)methyl)-2,5-dimethylpiperazin-1-yl)-2-methyl-1-(((S)-tetrahydrofuran-2-yl)methyl)-1H-[1,2,4]triazolo[3,4-b]purine] | ≤ 20 nM | ≤ 20 nM |
| Cc1nc2c(N3C[C@@H](C)N(C(c4cc(F)c(C(F)(F)F)cc4F)C4CC(F)(F)C4)C[C@@H]3C)nc3nncn3c2n1C[C@@H]1CCCO1 (stereo partly drawn) [Example 56, 4-((2S,5R)-4-((2,5-Difluoro-4-(trifluoromethyl)phenyl)(3,3-difluorocyclobutyl)methyl)-2,5-dimethylpiperazin-1-yl)-2-methyl-1-(((S)-tetrahydrofuran-2-yl)methyl)-1H-[1,2,4]triazolo[3,4-b]purine] | ≤ 20 nM | ≤ 20 nM |
